Source: ChEMBL document CHEMBL1136123, “3,5,6-Trisubstituted naphthostyrils as CDK2 inhibitors” (Bioorg Med Chem Lett, 2003)

Biological target: Cyclin-dependent kinase 2 (Homo sapiens, UniProt P24941)
Test: In vitro inhibition of Cyclin-dependent kinase 2

| SMILES | IC50 |
| --- | --- |
| NCCS(=O)(=O)c1cc(-c2ccc[nH]2)c2c3c(ccc(F)c13)NC2=O | 23 nM |
| O=C1Nc2ccc(F)c3c(S(=O)(=O)CCO)cc(-c4ccc[nH]4)c1c23 | 15 nM |
| CCOc1cc(-c2ccc[nH]2)c2c3c(ccc(F)c13)NC2=O | 77 nM |
| NCCSc1cc(-c2ccc[nH]2)c2c3c(ccc(F)c13)NC2=O | 3 nM |
| NCCOc1cc(-c2ccc[nH]2)c2c3c(ccc(F)c13)NC2=O | 12 nM |
| O=C1Nc2ccc(F)c3ccc(-c4ccc[nH]4)c1c23 | 204 nM |
| CC(=O)NCCNc1cc(-c2ccc[nH]2)c2c3c(ccc(F)c13)NC2=O | 127 nM |
| NCCCc1cc(-c2ccc[nH]2)c2c3c(ccc(F)c13)NC2=O | 7 nM |
| N#CCCc1cc(-c2ccc[nH]2)c2c3c(ccc(F)c13)NC2=O | 5 nM |
| O=C1Nc2ccc(F)c3c(SC[C@@H]4CCCN4)cc(-c4ccc[nH]4)c1c23 | 18 nM |
| NCC[S+]([O-])c1cc(-c2ccc[nH]2)c2c3c(ccc(F)c13)NC2=O (centres undefined) | 28 nM |
| O=C1Nc2ccc(F)c3c(OCCCO)cc(-c4ccc[nH]4)c1c23 | 18 nM |
| O=C1Nc2ccc(F)c3c(S[C@H]4CCNC4)cc(-c4ccc[nH]4)c1c23 | 5 nM |
| O=C1Nc2ccc(F)c3c(OCCO)cc(-c4ccc[nH]4)c1c23 | 62 nM |
| NCCCNc1cc(-c2ccc[nH]2)c2c3c(ccc(F)c13)NC2=O | 48 nM |
| CC(=O)OCCCOc1cc(-c2ccc[nH]2)c2c3c(ccc(F)c13)NC2=O | > 1000 nM |
| CCc1cc(-c2ccc[nH]2)c2c3c(ccc(F)c13)NC2=O | 72 nM |
| Cc1cc(-c2ccc[nH]2)c2c3c(ccc(F)c13)NC2=O | 376 nM |
| CC(C)(N)CNc1cc(-c2ccc[nH]2)c2c3c(ccc(F)c13)NC2=O | 65 nM |
| O=C1Nc2ccc(F)c3c(SCCO)cc(-c4ccc[nH]4)c1c23 | 14 nM |
| CC(C)Cc1cc(-c2ccc[nH]2)c2c3c(ccc(F)c13)NC2=O | 124 nM |
| O=C1Nc2ccc(F)c3c(NCCO)cc(-c4ccc[nH]4)c1c23 | 54 nM |
| COc1cc(-c2ccc[nH]2)c2c3c(ccc(F)c13)NC2=O | 18 nM |
| CC(C)(C)OC(=O)NCCNc1cc(-c2ccc[nH]2)c2c3c(ccc(F)c13)NC2=O | 5500 nM |
| CCN(CC)CCNc1cc(-c2ccc[nH]2)c2c3c(ccc(F)c13)NC2=O | 294 nM |

System: MDA-MB-435
Test: Inhibitory concentration against human breast carcinoma cell line proliferation
Type: functional, cell-based

| SMILES | IC50 |
| --- | --- |
| NCCS(=O)(=O)c1cc(-c2ccc[nH]2)c2c3c(ccc(F)c13)NC2=O | 1080 nM |
| O=C1Nc2ccc(F)c3c(S(=O)(=O)CCO)cc(-c4ccc[nH]4)c1c23 | 3200 nM |
| NCCSc1cc(-c2ccc[nH]2)c2c3c(ccc(F)c13)NC2=O | 310 nM |
| NCCOc1cc(-c2ccc[nH]2)c2c3c(ccc(F)c13)NC2=O | 380 nM |
| O=C1Nc2ccc(F)c3ccc(-c4ccc[nH]4)c1c23 | 2280 nM |
| O=C1Nc2ccc(F)c3c(SC[C@@H]4CCCN4)cc(-c4ccc[nH]4)c1c23 | 210 nM |
| NCC[S+]([O-])c1cc(-c2ccc[nH]2)c2c3c(ccc(F)c13)NC2=O (centres undefined) | 1210 nM |
| O=C1Nc2ccc(F)c3c(S[C@H]4CCNC4)cc(-c4ccc[nH]4)c1c23 | 120 nM |
| O=C1Nc2ccc(F)c3c(OCCO)cc(-c4ccc[nH]4)c1c23 | 580 nM |
| NCCCNc1cc(-c2ccc[nH]2)c2c3c(ccc(F)c13)NC2=O | 70 nM |
| CC(C)(N)CNc1cc(-c2ccc[nH]2)c2c3c(ccc(F)c13)NC2=O | 160 nM |
| O=C1Nc2ccc(F)c3c(SCCO)cc(-c4ccc[nH]4)c1c23 | 1730 nM |
| O=C1Nc2ccc(F)c3c(NCCO)cc(-c4ccc[nH]4)c1c23 | 620 nM |
| COc1cc(-c2ccc[nH]2)c2c3c(ccc(F)c13)NC2=O | 890 nM |

System: RKO
Test: Inhibitory concentration against human colon cancer (RKO) cell line proliferation
Type: functional, cell-based

| SMILES | IC50 |
| --- | --- |
| NCCS(=O)(=O)c1cc(-c2ccc[nH]2)c2c3c(ccc(F)c13)NC2=O | 430 nM |
| O=C1Nc2ccc(F)c3c(S(=O)(=O)CCO)cc(-c4ccc[nH]4)c1c23 | 1200 nM |
| NCCSc1cc(-c2ccc[nH]2)c2c3c(ccc(F)c13)NC2=O | 100 nM |
| NCCOc1cc(-c2ccc[nH]2)c2c3c(ccc(F)c13)NC2=O | 110 nM |
| O=C1Nc2ccc(F)c3ccc(-c4ccc[nH]4)c1c23 | 5950 nM |
| O=C1Nc2ccc(F)c3c(SC[C@@H]4CCCN4)cc(-c4ccc[nH]4)c1c23 | 60 nM |
| NCC[S+]([O-])c1cc(-c2ccc[nH]2)c2c3c(ccc(F)c13)NC2=O (centres undefined) | 420 nM |
| O=C1Nc2ccc(F)c3c(S[C@H]4CCNC4)cc(-c4ccc[nH]4)c1c23 | 70 nM |
| O=C1Nc2ccc(F)c3c(OCCO)cc(-c4ccc[nH]4)c1c23 | 500 nM |
| NCCCNc1cc(-c2ccc[nH]2)c2c3c(ccc(F)c13)NC2=O | 120 nM |
| CC(C)(N)CNc1cc(-c2ccc[nH]2)c2c3c(ccc(F)c13)NC2=O | 110 nM |
| O=C1Nc2ccc(F)c3c(SCCO)cc(-c4ccc[nH]4)c1c23 | 1480 nM |
| O=C1Nc2ccc(F)c3c(NCCO)cc(-c4ccc[nH]4)c1c23 | 740 nM |
| COc1cc(-c2ccc[nH]2)c2c3c(ccc(F)c13)NC2=O | 750 nM |

System: not listed separately
Test: Inhibition of blocked progression of G0 synchronized cell into S phase using G1-S cell cycle progression assay
Type: functional

| SMILES | IC50 |
| --- | --- |
| NCCSc1cc(-c2ccc[nH]2)c2c3c(ccc(F)c13)NC2=O | 810 nM |
| NCCOc1cc(-c2ccc[nH]2)c2c3c(ccc(F)c13)NC2=O | 910 nM |
| O=C1Nc2ccc(F)c3ccc(-c4ccc[nH]4)c1c23 | > 30000 nM |
| NCC[S+]([O-])c1cc(-c2ccc[nH]2)c2c3c(ccc(F)c13)NC2=O (centres undefined) | 1870 nM |
| O=C1Nc2ccc(F)c3c(OCCO)cc(-c4ccc[nH]4)c1c23 | 10900 nM |
| NCCCNc1cc(-c2ccc[nH]2)c2c3c(ccc(F)c13)NC2=O | 2040 nM |
| NCCNc1cc(-c2ccc[nH]2)c2c3c(ccc(F)c13)NC2=O | 1490 nM |
| CC(C)(N)CNc1cc(-c2ccc[nH]2)c2c3c(ccc(F)c13)NC2=O | 1670 nM |
| O=C1Nc2ccc(F)c3c(SCCO)cc(-c4ccc[nH]4)c1c23 | 2740 nM |
| O=C1Nc2ccc(F)c3c(NCCO)cc(-c4ccc[nH]4)c1c23 | 2390 nM |
| COc1cc(-c2ccc[nH]2)c2c3c(ccc(F)c13)NC2=O | 7100 nM |
